The text below walks through data of patent publication US20220267258A1, “ROBENIDINE ANALOGS AS POTENT ANTIMALARIALS AGAINST DRUG-RESISTANT PLASMODIUM FALCIPARUM” (OREGON HEALTH & SCIENCE UNIVERSITY, priority 2021, published 2022).

One data set relates to P. falciparum Tm90-C2B. Description: SYBR Green growth inhibition assay, P. falciparum Tm90-C2B. The settings on record: multi-drug resistant clinical isolate, also atovaquone resistant, 72 hr; read-out: IC50 Tm90-C2B. It counts as cell-based, Plasmodium falciparum. On the procedure:
(§1) In addition to the drug-sensitive P. falciparum D6 strain, the aminoguanidines were assessed against three drug-resistant strains (Tables 1-3).
(§2) The following parasite strains were used in this study and obtained through BEI Resources, NIAID, NIH. […] The culture medium used was RPMI-1640, supplemented with 25 mM HEPES buffer, 25 mg/L gentamicin sulfate, 45 mg/L hypoxanthine, 10 mM glucose, 2 mM glutamine, and 0.5% Albumax II (complete medium).^43 Cultures were maintained in a standard low oxygen atmosphere (5% O2, 5% CO2, 90% N2) in an environmental chamber and incubated at 37° C. Cultures were sub-passaged every 3-4 days into a fresh culture flask containing complete media and erythrocytes.
(§3) The aminoguanidine series was assessed for in vitro antiplasmodial activity using the fluorescence-based SYBR Green assay described previously by Smilkstein and co-workers.^38 Compounds were evaluated in quadruplicate in flat-bottomed Costar clear 96-well plates (Model #3585). A two-fold serial dilution of each compound was performed across the columns of the test plates starting with 20 μM and ending with a final untreated column to serve as control wells. Asynchronous parasite infected erythrocytes in growth media were added to each well for a total volume of 100 μL, final hematocrit of 2%, and initial parasitemia of 0.2%. The commercial malaria drugs atovaquone and chloroquine were used as control drugs. Test plates were incubated for 72 hr at 37° C. in an environmental chamber with a controlled low oxygen atmosphere (5% O2, 5% CO2, 90% N2). After the incubation period, 100 μL SYBR Green I dye-detergent solution was added to each well, and the plates were incubated at ambient temperature and atmosphere in the dark for at least one hour. Fluorescence was read at 497 nm excitation and 520 nm emission bands using a Spectramax iD3 plate reader. Fluorescence readings were normalized with respect to the untreated control wells representing normal parasite growth and plotted against the logarithm of drug concentration.

A short description of data set [1]: murine microsomal stability. The settings on record: from t1/2, assumed murine hepatic blood flow 90 mL/min/kg. On the procedure:
To investigate the relationship between the aminoguanidines' in vivo efficacy and their metabolic properties, the murine microsomal stability of a selection of aminoguanidines was evaluated (Table 6). Robenidine, 16, 21, 1, and the control compound ketanserin were incubated with pooled murine liver microsomes and monitored for degradation by LC/MS/MS for one hour. The concentration vs. time plot for each compound was used to determine its biological half-life (t1/2) and predicted intrinsic clearance (Clint).
Metabolic stability studies of selected aminoguanidines were performed at ChemPartner, Shanghai, China. Compounds were incubated at 37° C. and 1 μM concentration in murine liver microsomes (Corning) for one hour at a protein concentration of 0.5 mg/mL in potassium phosphate buffer at pH 7.4 containing 1.0 mM EDTA. The metabolic reaction was initiated by NADPH and quenched with ice-cold acetonitrile at 15 minute increments up to one hour.

A further data set has as its system P. berghei. As to conditions: murine species P. berghei, 1970; cited from earlier work.
The next data set deals with P. falciparum Dd2. The data set can be described thus: SYBR Green growth inhibition assay, P. falciparum Dd2. The data set is classed as cell-based, Plasmodium falciparum. The settings on record: multi-drug resistant strain, 72 hr; read-out: IC50 Dd2. On the procedure:
as §1, §2, §3

Another data set concerns P. falciparum A6. The data set can be described thus: SYBR Green growth inhibition assay, P. falciparum A6. The data set is classed as cell-based, Plasmodium falciparum. The settings on record: mutant line resistant to respiratory antagonists, 72 hr; read-out: IC50 A6. On the procedure:
as §1, §2, §3

The next data set concerns Babesia microti. The settings on record: oral; cited from earlier work.
For the next data set, the system named is Plasmodium yoelii. Description: modified 4-day Peters test, murine malaria. The data set is classed as in vivo, mice. On the procedure: In this modified 4-day Peters test,^41 mice were inoculated with parasites from a donor mouse (day 0), and then dosed orally with drugs on each of the subsequent four days (days 1-4). On day 5 of the experiment, the parasitemia for each mouse was determined microscopically by examining methanol-fixed and Giemsa-stained blood smears. The ED50 represents the interpolated dose of a compound at which parasitemia was suppressed to one half that of untreated controls. Similarly, the ED90 represents the dose at which parasitemia is suppressed ten-fold. Mice were considered cured of their infection if no parasites were detected in the blood 30 days from the first drug administration, and the non-recrudescence dose (NRD) represents the lowest dose to achieve a cure.
The in vivo ED50 and ED90 of selected aminoguanidines was measured using a modified 4-day Peters test. Female CF1 mice from Charles River Laboratories were inoculated intravenously with approximately 2.5-5.0×10^4 parasitized erythrocytes (murine malaria P. yoelii, Kenya strain MR4 MRA-428) from a donor mouse (experiment day zero). On the following four days (experiment days 1-4), solutions of the test compounds in PEG-300 (or PEG-300 only for control mice) were administered by oral gavage once daily. […] Parasitemia of each mouse was determined by microscopic examination of Giemsa stained blood smears on day 5. ED50 and ED90 values were assessed by generating dose-response curves relative to untreated controls using Graphpad Prism (v. 8). Mice were considered cured of malarial infection if they maintained 0% parasitemia at experiment day 30. The procedures involved, together with all matters relating to the care, handling, and housing of the animals used in this study, were approved by the Portland VA Medical Center Institutional Animal Care and Use Committee.

Data set [2] deals with human hepatoma derived HepG2 cells. Description: HepG2 cytotoxicity assay (resazurin). The data set is classed as cell-based. The settings on record: HepG2, 24 hr drug, 24 hr recovery. On the procedure:
In this assay, HepG2 cells were incubated with test compounds for 24 hours, followed by a 24-hour recovery period and subsequent staining to evaluate for cytotoxic effects with resazurin. The ratio of the resulting HepG2 IC50 value to the P. falciparum D6 IC50 value can be considered an ‘in vitro therapeutic index,’ or IVTI.
Compounds were prepared as 10 mM stock solutions in DMSO. […] HepG2 cells were added to each well of flat bottom 96-well tissue culture plates at an initial density of 2×10^4 cells per well, and an initial volume of 160 μL complete medium per well. After an overnight incubation at 37° C. to adhere the cells to the culture plates, 40 μL drug solutions in complete medium were applied to each well at a final concentration range of 0 to 200 μM across each plate. Drugs were tested in triplicate or quadruplicate. The cells were incubated for 24 hours at 37° C. and 5% CO2 with the drug solutions, which were then aspirated and replaced with 200 μL per well of complete medium for an additional 24 hour incubation under the same conditions. To each well was added 20 μL of resazurin (Alamar Blue) in PBS buffer to a final concentration of 10 μM, and the plates were incubated for 3 hours. Fluorescence was measured at 560 nm excitation and 590 nm emission bands using a Spectramax iD3 plate reader. Fluorescence readings were normalized with respect to the untreated control wells and plotted against the logarithm of drug concentration.

The subject of the next data set is Toxoplasma gondii. The settings on record: cited from earlier work.
The test system of the next data set is P. falciparum strain D6. The data set can be described thus: SYBR Green growth inhibition assay, P. falciparum D6. As to conditions: pan-sensitive strain, 72 hr, asynchronous cultures in human erythrocytes; read-out: IC50 D6. The data set is classed as cell-based, Plasmodium falciparum. On the procedure: The in vitro activity of each compound in the aminoguanidine library was assessed against asynchronous cultures of Plasmodium falciparum parasites replicating within human erythrocytes (Tables 1-3). As the chemical development of robenidine was not discussed in its original publication in 1970^4 and limited structural information is available regarding its mechanism of action,^10 profiling was guided primarily by in vitro potency against the P. falciparum D6 strain cultured in human erythrocytes as described above.
as §2
as §3, with “The commercial malaria drugs atovaquone and chloroquine were used as control drugs.” left out

A further data set concerns Leishmania donovani. As to conditions: read-out: in vitro IC50; cited from earlier work.
Another data set has as its system T. brucei. As to conditions: read-out: in vitro IC50; cited from earlier work.
In another data set the test system is T. cuzi. The settings on record: read-out: in vitro IC50; cited from earlier work.
The next data set has as its system P. falciparum. As to conditions: P. falciparum in vitro, in words; cited from earlier work.
The mark [3] stands for this setting: oral gavage days 1-4, parasitemia day 5.

For `N=C(N/N=C/c1ccc(Cl)cc1)N/N=C/c1ccc(Cl)cc1` [Robenidine], the IC50 in the data set with P. falciparum Tm90-C2B was 1.32 µM; in the data set on P. falciparum Dd2, 0.814 µM; in the data set on P. falciparum A6 it was 0.41 µM; in data set [2], 30 µM; with P. falciparum strain D6, 0.324 µM. In addition, the “Predicted Clint” value in data set [1] is given as 34.40 mL/min/kg. The activity in vivo result in the data set with P. berghei is on record as “moderate activity”. Moreover, the “murine in vivo non-recrudescence dose” value in the data set on Babesia microti is reported as 100 mg/kg/day. In addition, the “P. yoelii ED50” value with Plasmodium yoelii (setting [3]) is 1.6 mg/kg/day. Further, the “P. yoelii ED90” value in the data set with Plasmodium yoelii (setting [3]) was 4.9 mg/kg/day. Moreover, the “P. yoelii NRD (non-recrudescence dose, cure dose)” value with Plasmodium yoelii (oral, doses up to 25 mg/kg/day, no parasites at day 30) was over 25 mg/kg/day. Further, the “in vitro IC50” value in the data set on Toxoplasma gondii was 0.03 µg/mL.

For `Cl.Cl.Cl.N=C(N)c1cccc(/C=N/N=C(\N)N/N=C/c2cccc(C(=N)N)c2)c1` [CGP 40215A], the IC50 is 18 µM in the data set on Leishmania donovani, 20 µM in the data set on T. brucei and 20 µM in the data set with T. cuzi. For the same compound, in the data set with P. falciparum, the IC50 value result is on record as “low micromolar”.
